Reference: patent publication US10450297B2, “Sulfonyl amide derivatives for the treatment of abnormal cell growth” (Pfizer, Inc., priority 2007, dated 2019)

Molecular target: FAK kinase (catalytic construct FAK(410-689)) (Homo sapiens (Human), UniProt Q05397)
Assay: FAKcd kinase ELISA (inhibition of poly-glu-tyr phosphorylation by FAK(410-689))
Format: biochemical
Settings: 50 μM final ATP

Chain of FAK kinase (catalytic construct FAK(410-689)) (Q05397 410-689): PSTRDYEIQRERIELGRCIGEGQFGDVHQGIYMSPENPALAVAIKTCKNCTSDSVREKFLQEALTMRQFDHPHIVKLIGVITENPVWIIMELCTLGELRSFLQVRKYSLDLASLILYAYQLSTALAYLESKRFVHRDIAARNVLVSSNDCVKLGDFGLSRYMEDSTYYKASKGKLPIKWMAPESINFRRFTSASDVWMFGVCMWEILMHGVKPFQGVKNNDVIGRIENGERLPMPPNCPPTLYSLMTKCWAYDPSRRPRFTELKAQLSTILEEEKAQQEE

| SMILES | IC50 |
| --- | --- |
| CN(c1ncccc1CNc1nc(Nc2ccc(C(=O)N3CCNC(=O)C3)cc2)ncc1C(F)(F)F)S(C)(=O)=O [Compound 254, N-methyl-N-[3-({[2-({4-[(3-oxopiperazin-1-yl)carbonyl]phenyl}amino)-5-(trifluoromethyl)pyrimidin-4-yl]amino}methyl)pyridin-2-yl]methanesulfonamide] | 1.33 nM |
| CN(c1ncccc1CNc1nc(Nc2ccc(C(=O)NCC(C)(C)CO)cc2)ncc1C(F)(F)F)S(C)(=O)=O [Compound 256, N-(3-hydroxy-2,2-dimethylpropyl)-4-({4-[({2-[methyl(methylsulfonyl)amino]pyridin-3-yl}methyl)amino]-5-(trifluoromethyl)pyrimidin-2-yl}amino)benzamide] | 1.57 nM |
| CCC[C@H](CO)NC(=O)c1ccc(Nc2ncc(C(F)(F)F)c(NCc3cccnc3N(C)S(C)(=O)=O)n2)cc1 [Compound 257, N-[(1R)-1-(hydroxymethyl)butyl]-4-({4-[({2-[methyl(methylsulfonyl)amino]pyridin-3-yl}methyl)amino]-5-(trifluoromethyl)pyrimidin-2-yl}amino)benzamide] | 5.8 nM |
| CN(c1ncccc1CNc1nc(Nc2ccc(C(=O)N3CCCCC3)cc2)ncc1C(F)(F)F)S(C)(=O)=O [Compound 258, N-methyl-N-[3-({[2-{[4-(piperidin-1-ylcarbonyl)phenyl]amino}-5-(trifluoromethyl)pyrimidin-4-yl]amino}methyl)pyridin-2-yl]methanesulfonamide] | 1.79 nM |
| CN(C)C(=O)CNC(=O)c1ccc(Nc2ncc(C(F)(F)F)c(NCc3cccnc3N(C)S(C)(=O)=O)n2)cc1 [Compound 259, N-[2-(dimethylamino)-2-oxoethyl]-4-({4-[({2-[methyl(methylsulfonyl)amino]pyridin-3-yl}methyl)amino]-5-(trifluoromethyl)pyrimidin-2-yl}amino)benzamide] | 1.57 nM |
| CN(c1ncccc1CNc1nc(Nc2ccc(C(=O)N3CCC[C@H](O)C3)cc2)ncc1C(F)(F)F)S(C)(=O)=O [Compound 260, N-{3-[({2-[(4-{[(3S)-3-hydroxypiperidin-1-yl]carbonyl}phenyl)amino]-5-(trifluoromethyl)pyrimidin-4-yl}amino)methyl]pyridin-2-yl}-N-methylmethanesulfonamide] | 2.3 nM |
| CN(C(=O)c1ccc(Nc2ncc(C(F)(F)F)c(NCc3cccnc3N(C)S(C)(=O)=O)n2)cc1)C1CCCC1 [Compound 262, N-cyclopentyl-N-methyl-4-({4-[({2-[methyl(methylsulfonyl)amino]pyridin-3-yl}methyl)amino]-5-(trifluoromethyl)pyrimidin-2-yl}amino)benzamide] | 5.8 nM |
| CN(c1ncccc1CNc1nc(Nc2ccc(C(=O)NC(CO)CO)cc2)ncc1C(F)(F)F)S(C)(=O)=O [Compound 264, N-[2-hydroxy-1-(hydroxymethyl)ethyl]-4-({4-[({2-[methyl(methylsulfonyl)amino]pyridin-3-yl}methyl)amino]-5-(trifluoromethyl)pyrimidin-2-yl}amino)benzamide] | 4.6 nM |
| CN(c1ncccc1CNc1nc(Nc2ccc(C(=O)N3CC[C@H](O)C3)cc2)ncc1C(F)(F)F)S(C)(=O)=O [Compound 267, N-{3-[({2-[(4-{[(3S )-3-hydroxypyrrolidin-1-yl]carbonyl}phenyl)amino]-5-(trifluoromethyl)pyrimidin-4-yl}amino)methyl]pyridin-2-yl}-N-methylmethane-sulfonamide] | 1.15 nM |
| CN(c1ncccc1CNc1nc(Nc2ccc(C(=O)N3CCC(C)(O)C3)cc2)ncc1C(F)(F)F)S(C)(=O)=O (stereo not shown) [Compound 268, N-[3-({[2-({4-[(3-hydroxy-3-methylpyrrolidin-1 - yl)carbonyl]phenyl}amino)-5-(trifluoromethyl)pyrimidin-4-yl]amino}methyl)pyridin-2-yl]-N-methylmethane-sulfonamide] | 2.62 nM |
| CCCN(CCO)C(=O)c1ccc(Nc2ncc(C(F)(F)F)c(NCc3cccnc3N(C)S(C)(=O)=O)n2)cc1 [Compound 269, N-(2-hydroxyethyl)-4-({4-[({2-[methyl(methylsulfonyl)amino]pyridin-3-yl}methyl)amino]-5-(trifluoromethyl)pyrimidin-2-yl}amino)-N-propylbenzamide] | 8.69 nM |
| CN(c1ncccc1CNc1nc(Nc2ccc(C(=O)NCc3ccccc3)cc2)ncc1C(F)(F)F)S(C)(=O)=O [Compound 271, N-benzyl-4-({4-[({2-[methyl(methylsulfonyl)amino]pyridin-3-yl}methyl)amino]-5-(trifluoromethyl)pyrimidin-2-yl}amino)benzamide] | 1.14 nM |
| CN(c1ncccc1CNc1nc(Nc2ccc(C(=O)N3CC(F)C3)cc2)ncc1C(F)(F)F)S(C)(=O)=O [Compound 272, N-[3-(([2-({4-[(3-fluoroazetidin-1-yl)carbonyl]phenyl}amino)-5-(trifluoromethyl)pyrimidin-4-yl]amino}methyl)pyridin-2-yl]-N-methylmethane-sulfonamide] | 2.64 nM |

The remaining lines, values ahead:

| IC50 | SMILES |
| --- | --- |
| 0.82 nM | CN(c1ncccc1CNc1nc(Nc2ccc(C(=O)NCCCO)cc2)ncc1C(F)(F)F)S(C)(=O)=O [Compound 255, N-(3-hydroxypropyl)-4-({4-[({2-[methyl(methylsulfonyl)amino]pyridin-3-yl}methyl)amino]-5-(trifluoromethyl)pyrimidin-2-yl}amino)benzamide] |
| 1.13 nM | C[C@H]1COCCN1C(=O)c1ccc(Nc2ncc(C(F)(F)F)c(NCc3cccnc3N(C)S(C)(=O)=O)n2)cc1 [Compound 261, N-methyl-N-{3-[({2-[(4-{[(3S)-3-rnethylmorpholin-4-yl]carbonyl}phenyl)amino]-5-(trifluoromethyl)pyrimidin-4-yl}amino)methyl]pyridin-2-yl}methanesulfonamide] |
| 0.81 nM | CN(c1ncccc1CNc1nc(Nc2ccc(C(=O)NC3CCCOC3)cc2)ncc1C(F)(F)F)S(C)(=O)=O (stereo not shown) [Compound 263, 4-({4-(({2-[methyl(methylsulfonyl)amino]pyridin-3-yl}methyl)amino]-5-(trifluoromethyl)pyrimidin-2-yl}amino)-N-(tetrahydro-2H-pyran-3-yl)benzamide] |
| 0.6 nM | CC1CCN(C(=O)c2ccc(Nc3ncc(C(F)(F)F)c(NCc4cccnc4N(C)S(C)(=O)=O)n3)cc2)CC1 [Compound 265, N-methyl-N-[3-({[2-({4-[(4-methylpiperidin-1-yl)carbonyl]phenyl}amino)-5-(trifluoromethyl)pyrimidin-4-yl]amino}methyl)pyridin-2-yl]methanesulfonamide] |
| 0.6 nM | CN(c1ncccc1CNc1nc(Nc2ccc(C(=O)N3CCC(F)(F)C3)cc2)ncc1C(F)(F)F)S(C)(=O)=O [Compound 266, N-[3-({[2-({4-[(3.3-difluoropyrrolidin-1-yl)carbonyl]phenyl}amino)-5-(trifluoromethyl)pyrimidin-4-yl]amino}methyl)pyridin-2-yl]-N-methylmethane-sulfonamide] |
| 0.99 nM | CN(c1ncccc1CNc1nc(Nc2ccc(C(=O)NCCCCCO)cc2)ncc1C(F)(F)F)S(C)(=O)=O [Compound 270, N-(5-hydroxypentyl)-4-({4-[({2-[methyl(methylsulfonyl)amino]pyridin-3-yl}methyl)amino]-5-(trifluoromethyl)pyrimidin-2-yl}amino)benzamide] |
